Laboratory results as given in patent US10124035B2, “DISC-1 pathway activators in the control of neurogenesis” (Massachusetts Institute of Technology, priority 2008, dated 2018).

Tested on: neural progenitors in embryonic mouse brains
Assay: In utero electroporation of shRNA into E13 embryonic mouse brains
Type: in vivo
Text: • Mice. Swiss Webster pregnant female mice were purchased from Taconic (Hudson, N.Y.). • Cell Culture. AHPs were kindly provided by Dr. Gage (Lie, D. C. et al. Wnt signaling to regulates adult hippocampal neurogenesis. Nature 437, 1370-5 (2005)) and cultured under conditions described previously (Palmer, T. D., Takahashi, J. & Gage, F. H. The adult rat hippocampus contains primordial neural stem cells. Mol Cell Neurosci 8, 389-404 (1997)). Primary neural progenitors were isolated from E14 mouse embryos and cultured as described previously (Sanada, K. & Tsai, L. H. G protein betagamma subunits and AGS3 control spindle orientation and asymmetric cell fate of cerebral cortical progenitors. Cell 122, 119-31 (2005)). N2a and 293T cells were cultured in DMEM medium containing 10% FBS, L-glutamine, and penicillin/streptomycin. Wnt3a expressing L cells and untransfected L cells were obtained from ATCC (Manassas, Va.). Wnt3a conditional medium was produced according to the ATCC protocol. To induce AHP differentiation, FGF2 was removed from the culture medium and 1 μM retinoic acid/1% FBS was added to the medium for 4 days. • Reagents. Recombinant Wnt3a protein was obtained from Chemicon (Rosemont, Ill.). FGF2 was obtained from PeproTech (Rocky Hill, N.J.). Recombinant GST-GSK3β was obtained from Active Motif (Carlsbad, Calif.). Recombinant GST-β-catenin and GST-axin were obtained from Millipore (Billerica, Mass.). The GSK313 inhibitor, SB-216763, AR-A104418 and His-GSK3β, were obtained from Sigma-Aldrich (Sigma-Aldrich, St. Louis, Mo.). L803-MTS was obtained from Calbiochem (San Diego, Calif.). GST-AKT1 was obtained from Cell Signaling (Beverly, Mass.). GST-CASK-1 (CASK fragment from 316-415aa), GST-CASK-2 (CASK fragment from 777-974aa), and GST-p25 proteins were kindly provided by Dr. B. A. Samuels. Mouse DISC1 peptidel (40-78aa: GYMRSTAGSG IGFLSPAVGMPHPSSAG LTGQQSQHSQS; SEQ ID NO: 1) and Mouse DISC1 peptide 2 (195-238aa, […] GERGEAEGCLPSREAE; SEQ ID NO: 2) were synthesized by Chi Scientific (Maynard, Mass.). • Antibodies. The primary antibodies used in this study were the following: rabbit anti-DISC1 C-terminal antibody, mouse and rabbit anti-GFP antibodies (Invitrogen, Carlsbad, Calif.); affinity purified rabbit anti-DISC1 antibody (Novus, Littleton, Colo.) for immunohistochemistry; mouse anti-FLAG and mouse anti-Actin antibody; mouse anti-GSK3β antibody, mouse anti-β-catenin antibody, mouse anti-pY216 GSK3β antibody, and mouse anti-nestin antibody (BD Biosciences, San Diego, Calif.); rabbit anti-[…] β-catenin antibody, rabbit anti-pS9 GSK3β antibody, and mouse anti-cyclin to D1 antibody (Cell Signaling); mouse anti-Dv12 antibody, mouse anti-HA antibody, mouse anti-GST antibody, mouse anti-ubiquitin antibody, and rabbit anti-β-catenin antibody (Santa Cruz, Santa Cruz, Calif.); mouse Tuj-1 antibody (BABCO, Harrisburg, Pa.); mouse anti-BrdU antibody (DakoCytomation, Glostrup, Denmark); guinea pig anti-doublecortin antibody (Chemicon, Rosemont, Ill.); chicken anti-GFP antibody (Ayes Labs, Tigard, Oreg.); rabbit anti-pS10 Histone H3 antibody (Upstate, Lake Placid, N.Y.). • Constructs. The sequences for shRNAs targeting DISC1 are as follows: control shRNA: 5′-CGGCTGAAACAAGAGTTGG-3′ (SEQ ID NO:3); DISC1 shRNA-1: 5′-GGCAAACACTGTGA AGT GC-3′ (SEQ ID NO:4); DISC1 shRNA-2: 5′-[…]-3′ (SEQ ID NO:5)(Kamiya A. et al. A schizophrenia-associated mutation of DISC1 perturbs cerebral cortex development. Nat. Cell Biol 7, 1167-78 (2005)). DISC1 shRNA-1 recognizes both rat and mouse DISC1. […]

[1] = electroporated at E13, analyzed 3 days later

Substance: DISC1 shRNA-1: shRNA targeting rat and mouse DISC1, SEQ ID NO:4, in pLentiLox 3.7 vector (GGCAAACACTGTGAAGTGC)
- BrdU labeling (BrdU 2 hours prior to collection): 18.2±2.2%
- cell cycle exit index (electroporated E13, BrdU at E15, collected E16): 53.2±6.1%
- GFP+Dcx+ cells (electroporated E13, sacrificed E16, SVZ): 36.7±4.2%
- GFP positive cells in the VZ/SVZ [1]: 13%
- GFP positive cells in the cortical plate [1]: 59.6%
- mitotic index (pH3, electroporated E13, sacrificed E15): 3.8±0.8%
